Like-named read-outs stand apart in the source and are kept apart here.
Type: physicochemical
Protocol: An aqueous solution containing the following components was made:
10 mg/ml of adenosine 5′-triphosphate disodium salt (anhydrous) (18.15 mM)
1 mg/ml of glycine (13.32 mM)
Sodium hydroxide (sufficient to adjust pH to 9.2-9.3)
Water sufficient to result in the above concentrations of adenosine 5′-triphosphate disodium salt (anhydrous), glycine, and 36 mg/ml of Na2HPO4.7H2O.
Below (in Table 2) are shown the relative amounts of ADP in the solution aliquots at the various time points. The data shown are concentrations of ADP as a percentage of the concentrations of ATP in the solution aliquots. The pH of the 72 month time point sample was 8.8.

For Nc1ncnc2c1ncn2[C@@H]1O[C@H](COP(=O)([O-])OP(=O)([O-])OP(=O)(O)O)[C@@H](O)[C@H]1O.[Na+].[Na+] [ATP, adenosine 5′-triphosphate disodium salt (anhydrous)], the “Relative amount of ADP ([ADP]/[ATP] × 100)” value (“Relative amount of ADP” below) (0 months storage (immediately after making), 10 mg/ml ATP disodium, 1 mg/ml glycine, 36 mg/ml Na2HPO4.7H2O, pH 9.2-9.3) was 0.35%, the “Relative amount of ADP” value (1 month storage at about 4° C. to about 8° C., same solution) was 0.42% and the “Relative amount of ADP” value (3 months storage at about 4° C. to about 8° C., same solution) was 0.48%. The “Relative amount of ADP” value (6 months storage at about 4° C. to about 8° C., same solution) was 0.57%, the “Relative amount of ADP” value (12 months storage at about 4° C. to about 8° C., same solution) was 0.72% and the “Relative amount of ADP” value (24 months storage at about 4° C. to about 8° C., same solution) was 1.15%. The “Relative amount of ADP” value (36 months storage at about 4° C. to about 8° C., same solution) was 1.4%, the “pH of the solution after storage” value (72 month time point sample, initial pH 9.2-9.3) was 8.8 and the “Relative amount of ADP” value (72 months (6 years) storage at about 4° C. to about 8° C., same solution) was 2.9%. The “Stability of alkaline solution of ATP (duration)” value (alkaline solution) was “stable for at least six years” and the “Presence of other ATP degradation (hydrolysis) products (AMP and adenosine)” value (all time points 0 to 72 months, about 4° C. to 8° C., HPLC) was “significant levels of neither were detectable at any of the time points”.

— patent US20100222294A1, “Formulations of ATP and Analogs of ATP” (priority 2009, published 2010)
